Experimental data reported in patent US7524849B2, “5-arylpyrimidines as anticancer agents” (Wyeth Holdings Corporation, priority 2003, dated 2009).
pIC50: −log10 of the molar value. Like-named read-outs stand apart in the source and are kept apart here. Marks after values point to notes of the source that are not given here.

Assays:
MAP-rich tubulin = test: Tubulin polymerization test with MAP-rich tubulin; assay type: biochemical, bovine; details: 0.3 μM compound, mean A340 at 20 min, fold enhancement over control
Protocol: (§1) Medium is RPMI-1640 with L-glutamine, supplemented with 10% heat-inactivated fetal calf serum, 100 units/mL penicillin, and 100 μg/mL streptomycin (Gibco, Grand Island, N.Y.). Microtubule-associated protein (MAP)-rich tubulin, containing about 70% tubulin and 30% MAPs (#ML113), and highly purified tubulin (>99% pure, #TL238), both from bovine brain, are obtained from Cytoskeleton, Inc., Denver, Colo. PEM buffer (80 mM piperazine-N,N′-bis[2-ethanesulfonic acid], pH 6.9, 1 mM ethylene glycol-bis(β-aminoethyl ether)-N,N,N′,N′-tetraacetic acid, 1 mM magnesium chloride) and guanosine 5′-triphosphate (GTP) are also obtained from Cytoskeleton. […] [^3H]vinblastine, specific activity 9.60 Ci/mmol and MicroSpin G-50 columns are obtained from Amersham Biosciences (Piscataway, N.J.). […] Other reagents are obtained from Sigma (St. Louis, Mo.).
MAP-rich tubulin is dissolved in ice-cold PEM buffer containing 1 mM GTP (GPEM buffer) at a concentration of 1.3 mg/mL. The solution is centrifuged at top speed in an Eppendorf model 5415C microcentrifuge (Brinkmann Instruments, Westbury, N.Y.) for 10 min at 4° immediately before use. The tubulin solution is added to wells of a ½-area 96-well plate (Costar No. 3696, Corning, Inc., Corning, N.Y.) already containing the compounds of interest. Each compound is tested in duplicate at a final concentration of 0.3 μM in a volume of 110 μL per well. The final DMSO concentration in all wells is 0.3%. Control reactions, which receive compound solvent only, are done in quadruplicate. The plate is put in a SpectraMax Plus plate reader (Molecular Devices Corp. Sunnyvale, Calif.) thermostated at 24° and the absorbance of each well at 340 nm, a measure of the appearance of turbidity due to tubulin polymer formation, is determined every minute for 60 minutes. The absorbance at time 0 for each well is subtracted from each of the subsequent absorbance readings for that well, and then the duplicates are averaged.

[1] = system: highly purified tubulin (tubulin heterodimer); test: Competitive binding test, [3H]colchicine; set-up: species or system bovine; details: competitor 100 μM, [3H]colchicine 50 nM, percent of binding to control without competitor
Protocol: as §1
(§2) The binding of examples of this invention to highly purified tubulin is studied by competitive inhibition methods.
(§3) These solutions are incubated at 24° for 1 hr and then applied to MicroSpin G-50 columns which are centrifuged for 2 min at 3000 rpm in an Eppendorf 5415C microfuge. An aliquot of each column effluent (containing tubulin and bound radioligand) is mixed with scintillation fluid and counted in a liquid scintillation spectrometer. […] Quadruplicates are averaged, and the ability of the competitor to inhibit the binding of the radioligand is expressed as a percentage of control binding in the absence of any competitor.

COLO 205 cells = test: MTS cytotoxicity test with COLO 205 cells; assay type: cell-based, human; details: three days with compound
Protocol: (§4) The assay, which is sold in kit form by Promega (Madison, Wis.; CellTiter 96 AQueous Non-Radioactive Cell Proliferation Assay), is based on the conversion by viable cells, but not by dead cells, of the tetrazolium salt, MTS (3-(4,5-dimethylthiazol-2-yl)-5-(3-carboxymethoxyphenyl)-2-(4-sulphophenyl)-2H-tetrazolium, inner salt), into a water-soluble colored formazan which is detected by spectrophotometry. Compounds are tested at nine concentrations, in order to determine IC50 values. For the test procedure, cells are harvested by trypsinization, washed, counted and distributed to wells of 96-well flat-bottom microtiter plates at 1000 cells per well in 200 μL of medium. In addition, one row of wells on a separate plate receives cells as above (“time 0” plate). All plates are incubated at 37° in humidified 5% CO2 in air for about 24 hr.
On day 2, compounds for test are diluted and added to wells. Compounds are dissolved in DMSO at 10 mg/mL. For each compound, nine serial 2-fold dilutions are prepared in DMSO. Ten μL of each dilution in DMSO are transferred to 100 μL of medium, mixed well, and then 5 μL of this dilution are transferred in quadruplicate to wells containing cells. The final high concentration of each compound is typically 5 μM. Plates are returned to the incubator for three days. At the time of drug addition to the experimental plates, the MTS assay is run on the “time 0” plate. This produces the “time 0 MTS value” which is related to the number of viable cells per well at the time of drug addition.
After three days of culture with test compounds (day 5 overall), the MTS assay is done on all wells of the experimental plates. The absorbance values of the quadruplicate sample wells are averaged and divided by the average of the “time 0” values. The average of control wells without drug, divided by the average “time 0” value, gives the maximal relative increase in MTS color yield due to cell growth during the final three days of culture. The average of control wells with high drug concentration, divided by the “time 0” value, gives the minimal relative color yield for cells that were completely killed. The nine values for each compound are plotted against concentration, and the concentration that produces a relative color yield half way between the maximum and minimum is taken as the IC50 value.
COLO 205 is a human colon carcinoma cell line that is used for comparative testing of the examples of this invention and several reference compounds. This line is sensitive to paclitaxel and vincristine.

[2] = system: highly purified tubulin (tubulin heterodimer); test: Competitive binding test, [3H]vinblastine; set-up: species or system bovine; details: competitor 100 μM, [3H]vinblastine 100 nM, percent of binding to control without competitor
Protocol: as §1, §2, §3

KB-V1 cells = test: MTS cytotoxicity test with KB-V1 cells (very high P-glycoprotein); assay type: cell-based, human; details: for Ratio VI/KB: IC50 on KB VI cells/IC50 on KB cells; for IC50: KB VI cells, mean of 2 experiments; for recognition by P-glycoprotein: inferred from change in IC50 KB-V1 vs KB
Excerpt: (§5) Human cancer cell lines, unless otherwise noted, are obtained from the American Type Culture Collection (Rockville, Md.). The following drug-sensitive parental cell lines, and their derived drug-resistant counterparts, are obtained from the originators as listed: (a) S1 (parental line from a subclone of human colon carcinoma line LS174T) and derived S1-M1-3.2 (herein called S1-M1) which expresses the MXR drug transporter protein, are provided by Dr. L. Greenberger, Wyeth Research (Rabindran, S. K., He, H., Singh, M., Brown, E., Collins, K. I., Annable, T., and Greenberger, L. M. Reversal of a novel multidrug resistance mechanism in human colon carcinoma cells by fumitremorgin C. Cancer Res., 58: 5850-5858, 1998); (b) parental HL-60 human promyelocytic leukemia line and derived HL-60/ADR, which expresses the MRP1 drug transporter protein, are provided by Dr. M. Center, University of Kansas (McGrath, T., and Center, M. S. Adriamycin resistance in HL60 cells in the absence of detectable P-glycoprotein. Biochem. Biophys. […] J. Biol. Chem., 261: 7762-7770, 1986) via Dr. L. Greenberger, Wyeth Research.
as §4
(§6) On day 2, compounds for test are diluted and added to wells. Compounds are dissolved in DMSO at 10 mg/mL. For each compound, nine serial 2-fold dilutions are prepared in DMSO. Ten μL of each dilution in DMSO are transferred to 100 μL of medium, mixed well, and then 5 μL of this dilution are transferred in quadruplicate to wells containing cells. […] Plates are returned to the incubator for three days. At the time of drug addition to the experimental plates, the MTS assay is run on the “time 0” plate. This produces the “time 0 MTS value” which is related to the number of viable cells per well at the time of drug addition.
(§7) After three days of culture with test compounds (day 5 overall), the MTS assay is done on all wells of the experimental plates. The absorbance values of the quadruplicate sample wells are averaged and divided by the average of the “time 0” values. […] The nine values for each compound are plotted against concentration, and the concentration that produces a relative color yield half way between the maximum and minimum is taken as the IC50 value.

KB-8-5 cells = test: MTS cytotoxicity test with KB-8-5 cells (moderate P-glycoprotein); assay type: cell-based, human; details: KB 8.5 cells, mean of 2 experiments
Excerpt: as §5, §4, §6, §7

HL-60/ADR cells = test: MTS cytotoxicity test with HL-60/ADR cells (MRP1); assay type: cell-based, human; details: for IC50: HL-60/ADR cells, mean of 2 experiments; for Ratio: IC50 on HL-60/ADR cells/IC50 on HL-60 cells
Excerpt: as §5, §4, §6, §7
(§8) HL-60/ADR cells overexpress the multidrug resistance protein MRP1 which mediates resistance to some chemotherapeutics (Gottesman, M. M., Fojo, T., and Bates, S. E. Multidrug resistance in cancer: role of ATP-dependent transporters. Nature Rev. Cancer, 2: 48-58, 2002). The IC50 values of representative examples of this invention, as well as reference compounds, on HL-60/ADR are compared to values on the sensitive parental HL-60 line.

[3] = system: H157 Human Non-Small Cell Lung Carcinoma; details: for T/C on day 0 / T/C on day 3 / T/C on day 7 / T/C on day 10 / T/C on day 13: schedule day 0;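 on all read-outs here: subcutaneous flank tumors in female athymic nu/nu mice, staged near 100 mm^3 on day 0, tumor volume from caliper measurements, vehicle-dosed controls on the same schedule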
Protocol: The ability of compounds of this invention to inhibit tumor growth in animals is studied in the athymic mouse xenograft standard pharmacological test. Female nu/nu mice in an outbred albino background are obtained from Charles River Laboratories (Wilmington, Mass.). Animals are injected subcutaneously on the flank with the desired tumor cell suspension. Several days later, mice with tumors of approximately 100 mm^3 are selected from those injected (staged) and randomly distributed into groups of 5-10. The day of staging is called day 0. Compounds of the invention, formulated in saline, are administered to animals by intravenous injection or oral gavage on various schedules starting on day 0 or 1, as noted in the tables. The control group in each experiment is dosed with vehicle on the same schedule. Tumor size is measured every 3-7 days with calipers in two orthogonal dimensions, and tumor volume is calculated from the formula volume=[(length×width^2)/2].
Tumor/Control (T/C) is obtained by dividing the mean tumor volume of the treated group by the mean tumor volume of the control group on each measurement day. […] A p value≦0.05, determined by one-side Student's t-test, is required for statistical significance. A treatment dose is defined as toxic if more than 30% of the animals die from a compound-related toxicity.

S1-M1 cells = test: MTS cytotoxicity test with S1-M1 cells (MXR); assay type: cell-based, human; details: for Ratio: IC50 on S1-M1 cells/IC50 on S1 cells; for IC50: S1-M1 cells, mean of 2 experiments
Excerpt: as §5, §4, §6, §7
as §8, with “S1-M1” for “HL-60/ADR”, “MXR transporter” for “multidrug resistance protein MRP1”, “Miltidrug” for “Multidrug”, “S1” for “HL-60”

S1 cells = test: MTS cytotoxicity test with S1 cells; assay type: cell-based, human; details: mean of 2 experiments
Excerpt: as §5, §4, §6, §7
as §8, with “S1-M1” for “HL-60/ADR”, “MXR transporter” for “multidrug resistance protein MRP1”, “Miltidrug” for “Multidrug”, “S1” for “HL-60”

KB cells = test: MTS cytotoxicity test with KB cells; assay type: cell-based, human; details: mean of 2 experiments
Excerpt: as §5, §4, §6, §7

HL-60 cells = test: MTS cytotoxicity test with HL-60 cells; assay type: cell-based, human; details: mean of 2 experiments
Excerpt: as §5, §4, §6, §7, §8

CC(=O)O[C@@]12CO[C@@H]1C[C@H](O)[C@@]1(C)C(=O)[C@H](O)C3=C(C)[C@@H](OC(=O)[C@H](O)[C@@H](NC(=O)OC(C)(C)C)c4ccccc4)C[C@@](O)([C@@H](OC(=O)c4ccccc4)[C@H]21)C3(C)C [Docetaxel, reference compound]
A340 Compound / A340 Control (MAP-rich tubulin): 8.6

CN(C#N)c1nc(Cl)c(-c2c(F)cc(F)cc2F)c(NCC(F)(F)F)n1 [Example 1, 4-Chloro-6-[(2,2,2-trifluoroethyl)amino]-5-(2,4,6-trifluorophenyl)pyrimidin-2-yl(methyl)cyanamide]
[3H]Colchicine binding, Mean [1]: 47 % of control | pIC50 (COLO 205 cells; Homo sapiens, 72 h): 6.67 | [3H]Vinblastine binding, Mean [2]: 30 % of control

CN(C)CCCOc1cc(F)c(-c2c(Cl)nc(-c3cnccn3)nc2NCC(F)(F)F)c(F)c1.Cl [Example 25a, 6-Chloro-5-{4-[3-(dimethylamino)propoxy]-2,6-difluorophenyl}-2-pyrazin-2-yl-N-(2,2,2-trifluoroethyl)pyrimidin-4-amine hygrogen chloride]
Ratio VI/KB (KB-V1 cells): 4.9 | IC50 (KB-V1 cells): 99 nM | recognition by P-glycoprotein (KB-V1 cells): show recognition by P-glycoprotein, but much less than that shown by paclitaxel and vincristine | IC50 (KB-8-5 cells): 24 nM | pIC50 (COLO 205 cells): 7.74 | IC50 (HL-60/ADR cells): 21 nM | Ratio (HL-60/ADR cells): 0.9 | T/C on day 0 ([3]; 5 mg/kg IV, H157 (Table 10)): 1.02 | T/C on day 3 ([3]; 5 mg/kg IV, H157 (Table 10)): 0.69* | T/C on day 7 ([3]; 5 mg/kg IV, H157 (Table 10)): 0.44** | T/C on day 10 ([3]; 5 mg/kg IV, H157 (Table 10)): 0.29** | T/C on day 13 ([3]; 5 mg/kg IV, H157 (Table 10)): 0.23** | T/C on day 0 ([3]; 10 mg/kg IV, H157): 1.01 | T/C on day 3 ([3]; 10 mg/kg IV, H157): 0.49** | T/C on day 7 ([3]; 10 mg/kg IV, H157): 0.36** | T/C on day 10 ([3]; 10 mg/kg IV, H157): 0.22** | T/C on day 13 ([3]; 10 mg/kg IV, H157): 0.12** | compound toxicity ([3]; H157 NSCLC, intravenously on day 0, highest dose (10 mg/kg)): some compound toxicity is observed | Ratio (S1-M1 cells): 1.3 | IC50 (S1-M1 cells): 36 nM | IC50 (S1 cells): 27 nM | IC50 (KB cells): 20 nM | IC50 (HL-60 cells): 23 nM

CN(C)CCCOc1cc(F)c(-c2c(Cl)nc(-c3ccc4ccccc4n3)nc2NCC(F)(F)F)c(F)c1 [Example 30, 6-Chloro-5-{4-[3-(dimethylamino)propoxy]-2,6-difluorophenyl}-2-quinolin-2-yl-N-(2,2,2-trifluoroethyl)pyrimidin-4-amine]
IC50 (KB-V1 cells; Homo sapiens, KB-V1): 82 nM | IC50 (KB-8-5 cells; Homo sapiens): 68 nM | pIC50 (COLO 205 cells; Homo sapiens, 72 h): 8.13 | IC50 (HL-60/ADR cells; Homo sapiens, HL60/ADR): 71 nM | Ratio (HL-60/ADR cells): 0.8 | IC50 (S1-M1 cells; Homo sapiens): 201 nM | Ratio (S1-M1 cells): 1.5 | IC50 (S1 cells; Homo sapiens): 138 nM | IC50 (KB cells; Homo sapiens): 60 nM | IC50 (HL-60 cells; Homo sapiens): 88 nM

CNCCCOc1cc(F)c(-c2c(Cl)nc(-c3cnccn3)nc2C2CCCCCC2)c(F)c1.O=C(O)C(F)(F)F [Example 33a, N-{3-[4-(4-Chloro-6-cycloheptyl-2-pyrazin-2-ylpyrimidin-5-yl)-3,5-difluorophenoxy]propyl}-N-methylamine trifluoroacetic acide salt]
Ratio VI/KB (KB-V1 cells): 13 | IC50 (KB-V1 cells): 91 nM | recognition by P-glycoprotein (KB-V1 cells): show recognition by P-glycoprotein, but much less than that shown by paclitaxel and vincristine | IC50 (KB-8-5 cells): 7.5 nM | pIC50 (COLO 205 cells): 8.09 | IC50 (HL-60/ADR cells): 6.1 nM | Ratio (HL-60/ADR cells): 0.9 | A340 Compound / A340 Control (MAP-rich tubulin): 0.5 | Ratio (S1-M1 cells): 1.4 | IC50 (S1-M1 cells): 12 nM | IC50 (S1 cells): 8.5 nM | IC50 (KB cells): 6.8 nM | IC50 (HL-60 cells): 6.9 nM
